Experimental findings from patent US20260184693A1, “INHIBITORS OF SOLUTE CARRIER FAMILY 6A MEMBER 19 (SLC6A19) AND METHODS OF USE THEREOF” (Maze Therapeutics, Inc., priority 2022, published 2026) are described below.

pIC50: −log10 of the molar value.

The assay addresses T1, human SLC6A19 (Homo sapiens, UniProt Q695T7).
T1 construct: expressed in transfected cells
T1 sequence (Q695T7 1-634): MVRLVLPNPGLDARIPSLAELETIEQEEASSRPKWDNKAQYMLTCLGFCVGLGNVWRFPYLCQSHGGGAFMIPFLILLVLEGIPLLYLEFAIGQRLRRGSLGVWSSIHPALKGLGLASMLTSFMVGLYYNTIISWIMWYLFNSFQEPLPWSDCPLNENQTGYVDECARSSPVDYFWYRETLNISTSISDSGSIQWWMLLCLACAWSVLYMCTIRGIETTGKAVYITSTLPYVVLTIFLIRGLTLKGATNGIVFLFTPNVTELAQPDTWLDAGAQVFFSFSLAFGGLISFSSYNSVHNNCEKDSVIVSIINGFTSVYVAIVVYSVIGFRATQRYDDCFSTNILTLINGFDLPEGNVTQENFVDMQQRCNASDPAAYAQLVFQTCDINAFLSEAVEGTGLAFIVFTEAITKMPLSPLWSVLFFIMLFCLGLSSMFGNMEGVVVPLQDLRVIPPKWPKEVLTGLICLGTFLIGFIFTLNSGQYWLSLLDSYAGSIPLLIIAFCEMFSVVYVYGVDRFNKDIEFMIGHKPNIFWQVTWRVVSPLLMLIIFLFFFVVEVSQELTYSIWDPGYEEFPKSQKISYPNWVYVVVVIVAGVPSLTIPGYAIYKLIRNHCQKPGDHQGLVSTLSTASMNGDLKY
T1 sequence (Q9HBJ8 15-222 partner): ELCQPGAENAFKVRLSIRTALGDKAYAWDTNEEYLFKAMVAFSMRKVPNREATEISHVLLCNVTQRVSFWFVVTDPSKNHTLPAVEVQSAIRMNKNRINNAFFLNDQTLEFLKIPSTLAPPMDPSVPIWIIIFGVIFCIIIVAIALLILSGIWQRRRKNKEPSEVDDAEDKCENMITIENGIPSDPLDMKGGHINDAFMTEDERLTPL
As to the kind of experiment: Example B2: 13C6,15N-isoleucine uptake, RapidFire mass spectrometry, in CHO cells with doxycycline-inducible expression of human SLC6A19 and TMEM27. In kind it is cell-based. To be noted: read-out: SLC6A19_RapidFire Uptake Assay IC50. The procedure: Assay ready vials of CHO cells with doxycycline inducible expression of human SLC6A19 and TMEM27 were thawed, plated in T175 flasks containing DMEM/F12 media, 10% FBS, 100 Penicillin-Streptomycin, 1× UltraGlutamate, 1 mM Sodium Pyruvate, Sodium Bicarbonate (7.5 mL of 7.5% solution in 500 mL media final), […] Blasticidin, 150 µg/mL Hygromycin B Gold, and 500 µg/mL G418, and incubated (humidified, 37° C. with […]) for 48 hours. Media was then removed, flasks were washed with 20 mL of DPBS, and 5 mL of TryμLE™ Express was added to each flask to initiate cell dissociation. After 5 minutes, 10 mL of cell culture media was added to each flask and mixed. The cell suspension was collected and centrifuged for 5 minutes at 200×g. The supernatant was removed, and the pellet was resuspended in 10 mL of cell culture media. Resuspended cells were counted using a Vi-Cell. 30 μL/well (20,000 cells/well) of cell suspension was added to Poly-D-Lysine 384-well black/clear plates. Plates were incubated (humidified, 37° C. with 5% CO2) for 24 hours. To induce expression of human SLC6A19 and TMEM27, 10 μL of assay culture media containing 4 μg/mL doxycycline was added to each well. Assay plates were then incubated (humidified, 37° C. with 5% CO2) overnight. After incubation, the media was removed, and wells were washed 3 times with 40 μL of warmed DPBS. […] All compounds were plated in a duplicate 10-point dilution series that consisted of 2-fold dilutions. The plates were incubated (humidified, 37° C. with 5% CO2) with compound for 20 minutes. Afterwards, 20 μL/well of 2 mM 13C6,15N-1-isoleucine was added to each well and plates were incubated again (humidified, 37° C. with 5% CO2) for another 20 minutes. Assay buffer was then removed, and plates were washed. 70 μL/well of stop solution (75% acetonitrile, 25% HPLC grade water, 250 nM 1-leucine-1-13 C (RapidFire standard)) was added to each well. The plates were sealed and then placed in a −20° C. freezer for 20 minutes. The plates were thawed at room temperature for 20 minutes and then centrifuge for 20 minutes at 3000 rpm. Using an ABSciex API4000 mass spectrometer, processed samples were loaded onto the graphitic carbon SPE-column. The time for aspiration, load/wash, elution and re-equilibration time was 600, 1500, 3000 and 500 milliseconds, respectively. Peak areas were calculated using RapidFire Integrator software.
For `CN(C(=O)NCc1cc2cc(Cl)ccc2[nH]1)[C@@H]1CCCN(C(=O)Cn2ccccc2=O)C1` [Compound 81, (R)-3-((5-chloro-1H-indol-2-yl)methyl)-1-methyl-1-(1-(2-(2-oxopyridin-1(2H)-yl)acetyl)piperidin-3-yl)urea], the negative logarithm of the IC50 (pIC50) was 5.85. Turning to `CC(=O)N1CCC[C@@H](N(C)C(=O)NCc2cc3ccc(C#N)cc3[nH]2)C1` [Compound 172, (R)-1-(1-acetylpiperidin-3-yl)-3-((6-cyano-1H-indol-2-yl)methyl)-1-methylurea], the pIC50 was 4.96. With `CC(=O)N1CCC[C@@H](N(C)C(=O)NCc2cc3ccc(OCc4ccon4)cc3[nH]2)C1` [Compound 141, (R)-1-(1-acetylpiperidin-3-yl)-3-((6-(isoxazol-3-ylmethoxy)-1H-indol-2-yl)methyl)-1-methylurea] the figure was 6.17; with `CC(=O)N1CCC[C@@H](N(C)C(=O)NCc2cc3cc(Cl)cc(C)c3[nH]2)C1` [Compound 227, (R)-1-(1-acetylpiperidin-3-yl)-3-((5-chloro-7-methyl-1H-indol-2-yl)methyl)-1-methylurea], 6.49.

Consider `CN(C(=O)NCc1cc2cc(Cl)ccc2[nH]1)[C@@H]1CCCN(C(=O)CC(F)(F)F)C1` [Compound 8, (R)-3-((5-chloro-1H-indol-2-yl)methyl)-1-methyl-1-(1-(3,3,3-trifluoropropanoyl)piperidin-3-yl)urea], for which the pIC50 was 6.31. Consider `CC(=O)N1CCC[C@@H](N(C)C(=O)NCc2cc3cc(Cl)c(C#N)cc3[nH]2)C1` [Compound 182, (R)-1-(1-acetylpiperidin-3-yl)-3-((5-chloro-6-cyano-1H-indol-2-yl)methyl)-1-methylurea], for which the pIC50 is 5.53.

For `CN(C(=O)NCc1cc2cc(Cl)ccc2[nH]1)[C@@H]1CCCN(C(=O)Cn2nccn2)C1` [Compound 30, (R)-1-(1-(2-(2H-1,2,3-triazol-2-yl)acetyl)piperidin-3-yl)-3-((5-chloro-1H-indol-2-yl)methyl)-1-methylurea], the pIC50 is 5.43. With `CN(C(=O)NCc1cc2cc(Cl)ccc2[nH]1)[C@@H]1CCCN(C(=O)C2CCC(=O)N2)C1` (stereo partly drawn) [Compound 60, 3-((5-chloro-1H-indol-2-yl)methyl)-1-methyl-1-((3R)-1-(5-oxopyrrolidine-2-carbonyl)piperidin-3-yl)urea] the figure was 5.11.

Regarding `CCS(=O)(=O)CC(=O)N1CCC[C@@H](N(C)C(=O)NCc2cc3cc(Cl)ccc3[nH]2)C1` [Compound 71, (R)-3-((5-chloro-1H-indol-2-yl)methyl)-1-(1-(2-(ethylsulfonyl)acetyl)piperidin-3-yl)-1-methylurea], the pIC50 was 5.19. With `CN(C(=O)NCc1cc2cc(Cl)ccc2[nH]1)[C@@H]1CCCN(C(=O)C2CC(F)C2)C1` (stereo partly drawn) [Compound 124, (R)-3-((5-chloro-1H-indol-2-yl)methyl)-1-(1-(3-fluorocyclobutane-1-carbonyl)piperidin-3-yl)-1-methylurea] the figure was 6.59; with `CN(C(=O)NCc1cc2cc(Cl)ccc2[nH]1)[C@@H]1CCCN(C(=O)C2CC(C)(O)C2)C1` (stereo partly drawn) [Compound 99, (R)-3-((5-chloro-1H-indol-2-yl)methyl)-1-(1-(3-hydroxy-3-methylcyclobutane-1-carbonyl)piperidin-3-yl)-1-methylurea], 6.13; with `CN(C(=O)NCc1cc2cc(Cl)ccc2[nH]1)[C@@H]1CCCN(C(=O)CN2CCOC2=O)C1` [Compound 2, (R)-3-((5-chloro-1H-indol-2-yl)methyl)-1-methyl-1-(1-(2-(2-oxooxazolidin-3-yl)acetyl)piperidin-3-yl)urea], 5.45. The figure for `CN(C(=O)NCc1cc2cc(Cl)ccc2[nH]1)[C@@H]1CCCN(C(=O)CC2CC2)C1` [Compound 49, (R)-3-((5-chloro-1H-indol-2-yl)methyl)-1-(1-(2-cyclopropylacetyl)piperidin-3-yl)-1-methylurea] is 6.43; for `CN(C(=O)NCc1cc2cc(Cl)ccc2[nH]1)[C@@H]1CCCN(C(=O)CC#N)C1` [Compound 3, (R)-3-((5-chloro-1H-indol-2-yl)methyl)-1-(1-(2-cyanoacetyl)piperidin-3-yl)-1-methylurea] it is 6.44. With `Cc1ncc(C(=O)N2CCC[C@@H](N(C)C(=O)NCc3cc4cc(Cl)ccc4[nH]3)C2)o1` [Compound 38, (R)-3-((5-chloro-1H-indol-2-yl)methyl)-1-methyl-1-(1-(2-methyloxazole-5-carbonyl)piperidin-3-yl)urea] the figure was 6.37; with `CCN(C(=O)NCc1cc2cc(F)c(F)cc2[nH]1)[C@@H]1CCCN(C(C)=O)C1` [Compound 169, (R)-1-(1-acetylpiperidin-3-yl)-3-((5,6-difluoro-1H-indol-2-yl)methyl)-1-ethylurea], 7.01; with `CN(C(=O)NCc1cc2cc(Cl)ccc2[nH]1)[C@@H]1CCCN(C(=O)C2CCCCO2)C1` (stereo partly drawn) [Compound 93, 3-((5-chloro-1H-indol-2-yl)methyl)-1-methyl-1-((3R)-1-(tetrahydro-2H-pyran-2-carbonyl)piperidin-3-yl)urea], 5.79. On to `COC(C)C(=O)N1CCC[C@@H](N(C)C(=O)NCc2cc3cc(Cl)ccc3[nH]2)C1` (stereo partly drawn) [Compound 43, 3-((5-chloro-1H-indol-2-yl)methyl)-1-((3R)-1-(2-methoxypropanoyl)piperidin-3-yl)-1-methylurea], for which the pIC50 is 5.20. With `Cc1ccn(CC(=O)N2CCC[C@@H](N(C)C(=O)NCc3cc4cc(Cl)ccc4[nH]3)C2)n1` [Compound 85, (R)-3-((5-chloro-1H-indol-2-yl)methyl)-1-methyl-1-(1-(2-(3-methyl-1H-pyrazol-1-yl)acetyl)piperidin-3-yl)urea] the figure was 6.43; with `CN(C(=O)NCc1cc2cc(Cl)ccc2[nH]1)[C@@H]1CCCN(C(=O)CNC(N)=O)C1` [Compound 29, (R)-1-(1-(carbamoylglycyl)piperidin-3-yl)-3-((5-chloro-1H-indol-2-yl)methyl)-1-methylurea], 5.60; with `CC(=O)N1CCC[C@@H](N(C)C(=O)NCc2cc3ccc(OCc4cncs4)cc3[nH]2)C1` [Compound 136, (R)-1-(1-acetylpiperidin-3-yl)-1-methyl-3-((6-(thiazol-5-ylmethoxy)-1H-indol-2-yl)methyl)urea], 5.40.

On to `CN(C(=O)NCc1cc2cc(Cl)ccc2[nH]1)[C@@H]1CCCN(C(=O)C2COCCN2)C1` (stereo partly drawn) [Compound 133, 3-((5-chloro-1H-indol-2-yl)methyl)-1-methyl-1-((3R)-1-(morpholine-3-carbonyl)piperidin-3-yl)urea], for which the pIC50 is below 5.12. The figure for `CN(C(=O)NCc1cc2cc(Cl)ccc2[nH]1)[C@@H]1CCCN(C(=O)c2cocn2)C1` [Compound 7, (R)-3-((5-chloro-1H-indol-2-yl)methyl)-1-methyl-1-(1-(oxazole-4-carbonyl)piperidin-3-yl)urea] is 6.16; for `CN(C(=O)NCc1cc2cc(Cl)ccc2[nH]1)[C@@H]1CCCN(C(=O)C2CCC2)C1` [Compound 48, (R)-3-((5-chloro-1H-indol-2-yl)methyl)-1-(1-(cyclobutanecarbonyl)piperidin-3-yl)-1-methylurea] it is 7.35.
